Assay results reported in patent US20240158348A1, “HERBICIDAL CYCLIC AMIDES N-SUBSTITUTED WITH A HALOALKYLSULFONYLANILIDE GROUP” (FMC Corporation, priority 2021, published 2024).

Key:
Format in all cases: in vivo
[1] = system: oat, wild (wild oat, Avena fatua); test: Test C postemergence, wild oat; settings: visual injury, 0 to 100 scale (0 no effect, 100 complete control)
Description: (§1) Seeds of plant species selected from blackgrass (Alopecurus myosuroides), corn (Zea mays), foxtail, giant (giant foxtail, Setaria faberi), goosegrass (Eleusine indica), kochia (Bassia scoparia), oat, wild (wild oat, Avena fatua), pigweed, palmer (palmer amaranth, Amaranthus palmeri), ragweed (common ragweed, Ambrosia artemisiifolia), ryegrass, Italian (Italian ryegrass, Lolium multiflorum), soybean (Glycine max) and wheat (Triticum aestivum) were planted into a blend of loam soil and sand and treated preemergence with a directed soil spray using test chemicals formulated in a non-phytotoxic solvent mixture which included a surfactant.
(§2) At the same time, plants selected from these crop and weed species and also galium (catchweed bedstraw, Galium aparine) and horseweed (Erigeron canadensis) were planted in pots containing the same blend of loam soil and sand and treated with postemergence applications of test chemicals formulated in the same manner. Plants ranged in height from 2 to 10 cm and were in the one- to two-leaf stage for the postemergence treatment. Treated plants and untreated controls were maintained in a greenhouse for 10 or 12 days, after which time all treated plants were compared to untreated controls and visually evaluated for injury. Plant response ratings, summarized in Table A, are based on a 0 to 100 scale where 0 is no effect and 100 is complete control. A dash (-) response means no test result.

[2] = system: wheat (Triticum aestivum); test: Test C preemergence, wheat; settings: 0 is no effect, 100 is complete control
Description: as §1, §2

[3] = system: pigweed, palmer (palmer amaranth, Amaranthus palmeri); test: Test C preemergence, palmer amaranth; settings: 0 is no effect, 100 is complete control
Description: as §1, §2

[4] = system: barnyardgrass (Echinochloa crusgalli); test: Test D flooded paddy test, barnyardgrass; design: key: 0 = no effect, 100 = complete control; settings: 250 g ai/ha, Flood; applied to paddy water at 2-leaf stage; visual rating after 13 days; scale 0 (no effect) to 100 (complete control)
Procedure: (§3) Plant species in the flooded paddy test selected from barnyardgrass (Echinochloa crusgalli), ducksalad (Heteranthera limosa), rice (Oryza sativa), and sedge, umbrella (small-flower umbrella sedge, Cyperus difformis) were grown to the 2-leaf stage for testing. At time of treatment, test pots were flooded to 3 cm above the soil surface, treated by application of test compounds directly to the paddy water, and then maintained at that water depth for the duration of the test. Treated plants and controls were maintained in a greenhouse for 13 days, after which time all species were compared to controls and visually evaluated. Plant response ratings, summarized in Table B, are based on a scale of 0 to 100 where 0 is no effect and 100 is complete control. A dash (-) response means no test result.

[5] = system: oat, wild (wild oat, Avena fatua); test: Test C preemergence, wild oat; settings: 0 is no effect, 100 is complete control
Description: as §1, §2

[6] = system: ragweed (common ragweed, Ambrosia artemisiifolia); test: Test C postemergence, ragweed; settings: visual injury, 0 to 100 scale (0 no effect, 100 complete control)
Description: as §1, §2

kochia (Bassia scoparia) [7] = test: Test C postemergence, kochia; settings: visual injury, 0 to 100 scale (0 no effect, 100 complete control)
Description: as §1, §2

[8] = system: goosegrass (Eleusine indica); test: Test C preemergence, goosegrass; settings: 0 is no effect, 100 is complete control
Description: as §1, §2

rice (Oryza sativa) = test: Test D flooded paddy test, rice; design: key: 0 = no effect, 100 = complete control; settings: 250 g ai/ha, Flood; applied to paddy water at 2-leaf stage; visual rating after 13 days; scale 0 (no effect) to 100 (complete control)
Procedure: as §3

[9] = system: galium (catchweed bedstraw, Galium aparine); test: Test C postemergence, galium; settings: visual injury, 0 to 100 scale (0 no effect, 100 complete control)
Description: as §1, §2

kochia (Bassia scoparia) [10] = test: Test C preemergence, kochia; settings: 0 is no effect, 100 is complete control
Description: as §1, §2

soybean (Glycine max) [11] = test: Test C postemergence, soybean; settings: visual injury, 0 to 100 scale (0 no effect, 100 complete control)
Description: as §1, §2

corn (Zea mays) [12] = test: Test C preemergence, corn; settings: 0 is no effect, 100 is complete control
Description: as §1, §2

[13] = system: foxtail, giant (giant foxtail, Setaria faberi); test: Test C postemergence, giant foxtail; settings: visual injury, 0 to 100 scale (0 no effect, 100 complete control)
Description: as §1, §2

[14] = system: ragweed (common ragweed, Ambrosia artemisiifolia); test: Test C preemergence, ragweed; settings: 0 is no effect, 100 is complete control
Description: as §1, §2

corn (Zea mays) [15] = test: Test C postemergence, corn; settings: visual injury, 0 to 100 scale (0 no effect, 100 complete control)
Description: as §1, §2

[16] = system: goosegrass (Eleusine indica); test: Test C postemergence, goosegrass; settings: visual injury, 0 to 100 scale (0 no effect, 100 complete control)
Description: as §1, §2

[17] = system: wheat (Triticum aestivum); test: Test C postemergence, wheat; settings: visual injury, 0 to 100 scale (0 no effect, 100 complete control)
Description: as §1, §2

[18] = system: pigweed, palmer (palmer amaranth, Amaranthus palmeri); test: Test C postemergence, palmer amaranth; settings: visual injury, 0 to 100 scale (0 no effect, 100 complete control)
Description: as §1, §2

[19] = system: ducksalad (Heteranthera limosa); test: Test D flooded paddy test, ducksalad; design: key: 0 = no effect, 100 = complete control; settings: 250 g ai/ha, Flood; applied to paddy water at 2-leaf stage; visual rating after 13 days; scale 0 (no effect) to 100 (complete control)
Procedure: as §3

[20] = system: sedge, umbrella (small-flower umbrella sedge, Cyperus difformis); test: Test D flooded paddy test, umbrella sedge; design: key: 0 = no effect, 100 = complete control; settings: 250 g ai/ha, Flood; applied to paddy water at 2-leaf stage; visual rating after 13 days; scale 0 (no effect) to 100 (complete control)
Procedure: as §3

[21] = system: blackgrass (Alopecurus myosuroides); test: Test C postemergence, blackgrass; settings: visual injury, 0 to 100 scale (0 no effect, 100 complete control)
Description: as §1, §2

soybean (Glycine max) [22] = test: Test C preemergence, soybean; settings: 0 is no effect, 100 is complete control
Description: as §1, §2

[23] = system: ryegrass, Italian (Italian ryegrass, Lolium multiflorum); test: Test C preemergence, Italian ryegrass; settings: 0 is no effect, 100 is complete control
Description: as §1, §2

[24] = system: ryegrass, Italian (Italian ryegrass, Lolium multiflorum); test: Test C postemergence, Italian ryegrass; settings: visual injury, 0 to 100 scale (0 no effect, 100 complete control)
Description: as §1, §2

[25] = system: horseweed (Erigeron canadensis); test: Test C postemergence, horseweed; settings: visual injury, 0 to 100 scale (0 no effect, 100 complete control)
Description: as §1, §2

[26] = system: foxtail, giant (giant foxtail, Setaria faberi); test: Test C preemergence, giant foxtail; settings: 0 is no effect, 100 is complete control
Description: as §1, §2

Cc1c(N2CCC(OC3CCC3)C2=O)cc(N(C(=O)OCC(C)C)S(=O)(=O)C(F)(F)F)c(C)c1C (centres unmarked) [Compound 48]
100: Plant response rating (0 to 100 scale), Pigweed, Palmer ([3]; 31 g ai/ha Preemergence) | Plant response rating (0 to 100 scale), Pigweed, Palmer ([3]; 125 g ai/ha Preemergence) | Plant response rating (0 to 100 scale), Goosegrass ([8]; 125 g ai/ha Preemergence) | Galium plant response rating ([9]; 125 g ai/ha Postemergence) | Plant response rating (0 to 100 scale), Ryegrass, Italian ([23]; 125 g ai/ha Preemergence) | Plant response rating (0 to 100 scale), Foxtail, Giant ([26]; 125 g ai/ha Preemergence)
50: Plant response rating (0 to 100 scale), Oat, Wild ([5]; 31 g ai/ha Preemergence) | Corn plant response rating (corn (Zea mays) [15]; 125 g ai/ha Postemergence)
60: Kochia plant response rating (kochia (Bassia scoparia) [7]; 125 g ai/ha Postemergence) | Plant response rating (0 to 100 scale), Corn (corn (Zea mays) [12]; 125 g ai/ha Preemergence) | Foxtail, Giant plant response rating ([13]; 125 g ai/ha Postemergence) | Plant response rating (0 to 100 scale), Ryegrass, Italian ([23]; 31 g ai/ha Preemergence) | Ryegrass, Italian plant response rating ([24]; 125 g ai/ha Postemergence)
20: Oat, Wild plant response rating ([1]; 125 g ai/ha Postemergence) | Kochia plant response rating (kochia (Bassia scoparia) [7]; 31 g ai/ha Postemergence) | Plant response rating (0 to 100 scale), Corn (corn (Zea mays) [12]; 31 g ai/ha Preemergence) | Foxtail, Giant plant response rating ([13]; 31 g ai/ha Postemergence) | Plant response rating (0 to 100 scale), Ragweed ([14]; 31 g ai/ha Preemergence)
70: Soybean plant response rating (soybean (Glycine max) [11]; 125 g ai/ha Postemergence) | Wheat plant response rating ([17]; 125 g ai/ha Postemergence) | Pigweed, Palmer plant response rating ([18]; 125 g ai/ha Postemergence) | Plant response rating (0 to 100 scale), Soybean (soybean (Glycine max) [22]; 125 g ai/ha Preemergence) | Horseweed plant response rating ([25]; 31 g ai/ha Postemergence)
10: Oat, Wild plant response rating ([1]; 31 g ai/ha Postemergence) | Plant response rating (0 to 100 scale), Kochia (kochia (Bassia scoparia) [10]; 31 g ai/ha Preemergence) | Blackgrass plant response rating ([21]; 31 g ai/ha Postemergence)
30: Plant response rating (0 to 100 scale), Wheat ([2]; 31 g ai/ha Preemergence) | Ragweed plant response rating ([6]; 31 g ai/ha Postemergence) | Soybean plant response rating (soybean (Glycine max) [11]; 31 g ai/ha Postemergence) | Wheat plant response rating ([17]; 31 g ai/ha Postemergence) | Pigweed, Palmer plant response rating ([18]; 31 g ai/ha Postemergence) | Blackgrass plant response rating ([21]; 125 g ai/ha Postemergence) | Plant response rating (0 to 100 scale), Soybean (soybean (Glycine max) [22]; 31 g ai/ha Preemergence) | Plant response rating (0 to 100 scale), Foxtail, Giant ([26]; 31 g ai/ha Preemergence)
40: Goosegrass plant response rating ([16]; 125 g ai/ha Postemergence) | Ryegrass, Italian plant response rating ([24]; 31 g ai/ha Postemergence)
90: Galium plant response rating ([9]; 31 g ai/ha Postemergence) | Plant response rating (0 to 100 scale), Kochia (kochia (Bassia scoparia) [10]; 125 g ai/ha Preemergence) | Plant response rating (0 to 100 scale), Ragweed ([14]; 125 g ai/ha Preemergence) | Plant response rating, Sedge, Umbrella [20] | Horseweed plant response rating ([25]; 125 g ai/ha Postemergence)
95: Plant response rating, Ducksalad [19]
80: Plant response rating (0 to 100 scale), Wheat ([2]; 125 g ai/ha Preemergence) | Plant response rating, Barnyardgrass [4] | Plant response rating (0 to 100 scale), Oat, Wild ([5]; 125 g ai/ha Preemergence) | Ragweed plant response rating ([6]; 125 g ai/ha Postemergence) | Plant response rating (0 to 100 scale), Goosegrass ([8]; 31 g ai/ha Preemergence)
0: Corn plant response rating (corn (Zea mays) [15]; 31 g ai/ha Postemergence) | Goosegrass plant response rating ([16]; 31 g ai/ha Postemergence)
25: Plant response rating, Rice (rice (Oryza sativa))
